# Experimental data: ChEMBL document CHEMBL1201862, “PubChem BioAssay data set” (2004)
#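 Results reflect a 48-hour exposure of cells in 96-well plates to compound at five concentrations. The concentration for 50% growth inhibition is given as GI50.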 Calls of active or inactive are those of the source. Cut-off read from the data, not from the text of the source: active = GI50 up to about 1.1 µM and inactive = higher.
# Tested on: HCC 2998
# Experiment: NCI-60 cell line screen, 48 h
smiles,measurement,value
c1ccc(-c2ccnc3c2ccc2c(-c4ccccc4)ccnc23)cc1,GI50,3.53 µM (inactive)
